Measured values from article PMC5607265, “Design, synthesis and structure-activity relationship of 3,6-diaryl-7H-[1,2,4]triazolo[3,4-b][1,3,4]thiadiazines as novel tubulin inhibitors” (Scientific Reports, 2017).
Entries after “also recorded” stand apart in the source; their conditions may differ.

How the values were obtained:
[1] = test system: gastric adenocarcinoma SGC-7901 cells; test: MTT antiproliferative assay, SGC-7901; assay type: cell-based, human; details: Homo sapiens, SGC-7901; MTT assay, 24 h exposure, triplicate; read-out: IC50 SGC-7901
Method: (§1) The SGC-7901, A549 and HT-1080 cell lines were purchased from the American Type Culture Collection (ATCC, Manassas, VA, USA). […] Briefly, approximately 3 × 10^4 cells were seeded in a 96-well plate. After 24 h of incubation at 37 °C, cells were exposed to compounds of differing concentrations for 24 h. After treatment, cells were washed with 1X PBS followed by addition of 100 µL of 0.05% MTT reagent to each well, followed by incubation for 4 h at 37 °C. After incubation, the supernatant from each well was carefully removed and the formazan crystals were dissolved in 100 µL of DMSO. The colour density was measured spectrophotometrically at 490 nm using a microplate reader (SpectraMax Plus384, Molecular Devices Corp., USA). The data were calculated and plotted as percent viability compared to control.
as §1

[2] = test system: lung adenocarcinoma A549 cells; test: MTT antiproliferative assay, A549; assay type: cell-based, human; details: Homo sapiens, A549; MTT assay, 24 h exposure, triplicate; read-out: IC50 A549
Method: as §1, §1

[3] = test system: fibrosarcoma HT-1080 cells; test: MTT antiproliferative assay, HT-1080; assay type: cell-based, human; details: Homo sapiens, HT-1080; MTT assay, 24 h exposure, triplicate; read-out: IC50 HT-1080
Method: as §1, §1

[4] = biological target: colchicine-binding site on tubulin (Sus scrofa, UniProt P02554); test: Competitive tubulin-binding assay (colchicine); details: 5.0 µM colchicine; compound 1.6, 5.0, 15.0 µM
Method: To confirm whether these designed compounds could bind to the colchicine site on tubulin, compound 6i was investigated for its ability of competitive inhibition of colchicine binding[39],[40]. CA-4 and paclitaxel were used as a positive and a negative control, respectively.
Figure 6 Competitive binding of 6i to colchicine-binding site on tubulin.
For the colchicine competitive binding assay, tubulin was co-incubated with indicated concentrations of MPSP-001 and paclitaxel at 37 °C for 1 h. Then colchicine was added to a final concentration of 5 μmol L^−1. Fluorescence was determined using a Hitachi F-2500 spectrofluorometer (Tokyo, Japan) at the excitation wavelength of 365 nm and the emission wavelength of 435 nm. Blank values (buffer alone) as the background were subtracted from all samples. […] Paclitaxel, not binding in the colchicine site of tubulin, was added as a negative control. The experiments were repeated at least three times.
(5). Competitive tubulin-binding assay. For the colchicine competitive binding assay, tubulin was co-incubated with indicated concentrations of MPSP-001 and paclitaxel at 37 °C for 1 h. Then colchicine was added to a final concentration of 5 μmol L^−1. Fluorescence was determined using a Hitachi F-2500 spectrofluorometer (Tokyo, Japan) at the excitation wavelength of 365 nm and the emission wavelength of 435 nm. […]

[5] = test system: SGC-7901, A549 and HT-1080 cell lines; test: MTT antiproliferative assay, span over the three cell lines; assay type: cell-based, human; details: MTT assay; for IC50: Homo sapiens, range over SGC-7901, A549 and HT-1080, read-out: IC50 range against the three human cancer cell lines
Method: as §1, §1

[6] = test system: HCT116; set-up: method as in Org. Biomol. Chem. 2005, 3, 2657-2660; details: ref Org. Biomol. Chem. 2005, 3, 2657-2660; cited from earlier work

melting point | SMILES | IC50 [1] | IC50 [2] | IC50 [3] | competition with colchicine: fluorescence of colchicine-tubulin complex [4] | IC50 [5] | antiproliferative activity in words ([5]; SGC-7901, A549 and HT-1080) | IC50 [6]
138 to 140 °C | COc1cccc(-c2nnc3n2N=C(c2ccc(OC)c(N)c2)CS3)c1 [Compound 6i, 3-(3-Methoxyphenyl)-6-(3-amino-4-methoxyphenyl)-7H-[1,2,4]triazolo[3,4-b][1,3,4]thiadiazine] | 11 nM | 15 nM | 14 nM | fluorescence of a colchicine-tubulin complex was reduced | 11 to 15 nM | nanomolar IC50 values against all tested cells; also recorded: IC50 values at the nanomolar level | 
 | COc1ccc(/C=C\c2cc(OC)c(OC)c(OC)c2)cc1O [CA-4, Combretastatin A-4, reference compound] | 11 nM | 9 nM | 13 nM | fluorescence of a colchicine-tubulin complex was reduced | 9 to 13 nM |  | 16 nM
